From article PMC13183915, “A platinum butterfly effect: small changes turn an anticancer drug into a non-toxic metalloantibiotic with in vivo efficacy” (npj Antimicrobials and Resistance, 2026)
Converted amounts (≈) assume the structure as drawn. Read-outs that look alike come from different tables or passages of the source.

What was measured:
[1] = system: S. aureus ATCC 29213; experiment: Drug interaction study (chequerboard assay); format: cell-based; conditions: for MIC: Staphylococcus aureus, ATCC29213; for FIC B: antibiotic in combination with Pt1 / alone; for FIC (FICA+FICB) / Interference: combination with Pt1; for Interference: synergistic ≤0.5, indifferent >0.5 to 4, antagonistic >4
Experimental: All compounds were freshly prepared for the experiment. […] Following incubation, the fractional inhibitory concentration index (FICI) was calculated with the formula FICI = […], whereby FICA = MIC of drug A in combination/MIC of drug A alone and FICB = MIC of drug B in combination/MIC of drug B alone. A drug combination is considered synergistic when ∑FICI is ≤0.5, indifferent when ∑FICI is >0.5 to 4, and antagonistic when ∑FICI is >4.

[2] = system: MSSA ATCC 29213; experiment: Broth microdilution MIC, MSSA ATCC 29213; format: cell-based, S. aureus; conditions: Staphylococcus aureus
Experimental: The data is given in supporting information (Table S5). Before starting the experiment, a single colony was picked from MHA plate, inoculated in MHBII and incubated overnight at 37 °C with shaking for 18–24 h to get the starter culture. Antibiotic susceptibility testing was conducted according to the CLSI (Clinical & Laboratory Standards Institute) guidelines using the broth microdilution assay. 10 mg/mL stock solutions of test compounds were prepared in DMSO. Bacterial cultures were inoculated in MHBII and optical density (OD) was measured at 600 nm, followed by dilution to achieve ~10^6 CFU/mL. The compounds were tested from 64 to 0.5 mg/L in two-fold serial diluted fashion with 2.5 μL of each concentration added to well of a 96-well round bottom microtiter plate. Later, 97.5 μL of bacterial suspension was added to each well containing either test compound or appropriate controls. […] The MIC is defined as the lowest concentration of the compound at which there is absence of visible growth. For each test compound, MIC determinations were carried out independently three times using duplicate samples.

[3] = system: 36th Passage S.aureus ATCC 29213 in the presence of Pt-1; experiment: microbe, parasite or virus in culture; format: cell-based; conditions: Staphylococcus aureus, ATCC29213
Experimental: (§1) The MICs of the passaged cultures were determined every 3 days and compared to that of wild type S. aureus ATCC 29213. MIC changes were recorded for 36 passages.

[4] = system: 36th Passage S.aureus ATCC 29213 in the presence of Levofloxacin; experiment: Antibiogram of strain passaged with levofloxacin; format: cell-based; conditions: Staphylococcus aureus, ATCC29213
Experimental: as §1

[5] = system: Escherichia coli W3110; experiment: MIC assay, E. coli; format: cell-based; conditions: E. coli, Table S2
[6] = system: Bacillus subtilis MW168; experiment: MIC assay, B. subtilis MW168; format: cell-based; conditions: B. subtilis MW168
[7] = system: methicillin-sensitive Staphylococcus aureus (MSSA), clinical isolate; experiment: MIC assay, MSSA clinical isolate; format: cell-based; conditions: MSSA clinical isolate
[8] = system: methicillin-resistant S. aureus (MRSA) COL; experiment: MIC assay, MRSA COL; format: cell-based, Staphylococcus aureus; conditions: MRSA COL
[9] = system: E. coli (NCTC 13476); experiment: MIC, E. coli NCTC 13476 (with or without PMBN); format: cell-based; conditions: E. coli NCTC 13476
[10] = system: S. aureus (CCUG 62707); experiment: MIC of COD ligand and Pt precursor, S. aureus CCUG 62707; format: cell-based; conditions: S. aureus CCUG 62707
[11] = system: B. subtilis 168CA; experiment: ROS scavenger assay (modified MIC assay); format: cell-based, Bacillus subtilis
Experimental: LB media were prepared to contain either 10 mM tiron, 150 mM thiourea, 10 mM tiron and 150 mM thiourea, or no […]. Serial two-fold dilutions of the different antibiotics were prepared in the respective media and transferred to 96-well plates. […] The OD600 was meassured in a BMG Clariostar Plus plate reader.

[12] = compound alone, Table S8, read-out: MIC
[13] = S.aureus ATCC 29213 (unpassaged), Table S9, read-out: MIC

**Q.** How did the MIC [1, 12] turn out when `CC(=O)NC[C@H]1CN(c2ccc(N3CCOCC3)c(F)c2)C(=O)O1` [Linezolid] was run?
**A.** The MIC was 2 µg/mL.

**Q.** And the “FIC B” value [1]?
**A.** The value was 1.

**Q.** What about the “FIC (FICA+FICB)” value [1] of the same molecule?
**A.** The value was 2.

**Q.** And the Interference [1]?
**A.** Its Interference is “no interaction”.

**Q.** What about the MIC [2, 13] of the same molecule?
**A.** The MIC was 2 µg/mL (≈ 5.93 µM).

**Q.** What about the MIC [3] of the same molecule?
**A.** Its MIC is 2 µg/mL (≈ 5.93 µM).

**Q.** For `C[C@@H](O)[C@H]1C(=O)N2C(C(=O)O)=C(S[C@@H]3CN[C@H](C(=O)N(C)C)C3)[C@H](C)[C@H]12` [Meropenem], which MIC [4] is on record?
**A.** The MIC was 0.125 µg/mL (≈ 0.326 µM).

**Q.** What about the MIC [1, 12] of the same molecule?
**A.** The MIC was 0.25 µg/mL.

**Q.** And the “FIC B” value [1]?
**A.** The value was 1.

**Q.** What about the “FIC (FICA+FICB)” value [1] of the same molecule?
**A.** The value was 2.

**Q.** And the Interference [1]?
**A.** Its Interference is “no interaction”.

**Q.** What about the MIC [2, 13] of the same molecule?
**A.** The MIC was 0.25 µg/mL (≈ 0.652 µM).

**Q.** What about the MIC [3] of the same molecule?
**A.** The MIC was 0.25 µg/mL (≈ 0.652 µM).

**Q.** `CN(C)c1ccc(O)c2c1C[C@H]1C[C@H]3[C@H](N(C)C)C(O)=C(C(N)=O)C(=O)[C@@]3(O)C(O)=C1C2=O` [Minocycline] was tested. Which MIC [1] did it give?
**A.** Its MIC is 0.125 µg/mL.

**Q.** And the “FIC B” value [1]?
**A.** Its value is 1.

**Q.** And the “FIC (FICA+FICB)” value [1]?
**A.** The value was 2.

**Q.** And the Interference [1]?
**A.** Its Interference is “no interaction”.

**Q.** What about the MIC [2] of the same molecule?
**A.** The MIC was 0.0625 µg/mL (≈ 0.137 µM).

**Q.** What about the MIC [3] of the same molecule?
**A.** Its MIC is 0.125 µg/mL (≈ 0.273 µM).

**Q.** What does the source list for `O=C1[O][Pt]2([NH][C@@H]3CCCC[C@H]3[NH]2)[O]C1=O` [Oxaliplatin]?
**A.** MIC [5]: > 100 µM; MIC [6]: > 100 µM; MIC [7]: > 100 µM; MIC [8]: > 100 µM

**Q.** For `[Cl][Pt-2]([Cl])([Cl])[Cl].[K+].[K+]` [Pt K2PtCl4, K2PtCl4], which MIC [9] is on record?
**A.** The MIC was greater than 200 µM.

**Q.** What about the MIC [10] of the same molecule?
**A.** Its MIC is greater than 200 µM.

**Q.** How did the MIC [1, 12] turn out when `CO[C@H]1/C=C/O[C@@]2(C)Oc3c(C)c(O)c4c(O)c(c(/C=N/N5CCN(C)CC5)c(O)c4c3C2=O)NC(=O)/C(C)=C\C=C\[C@H](C)[C@H](O)[C@@H](C)[C@@H](O)[C@@H](C)[C@H](OC(C)=O)[C@@H]1C` [Rifampicin] was run?
**A.** The MIC was 0.0078 µg/mL.

**Q.** And the “FIC B” value [1]?
**A.** Its value is 1.

**Q.** What about the “FIC (FICA+FICB)” value [1] of the same molecule?
**A.** Its value is 2.

**Q.** What about the Interference [1] of the same molecule?
**A.** The Interference was “no interaction”.

**Q.** And the MIC [2]?
**A.** Its MIC is 0.0156 µg/mL (≈ 0.019 µM).

**Q.** And the MIC [3]?
**A.** The MIC was 0.0156 µg/mL (≈ 0.019 µM).

**Q.** How did the “MIC fold change (increase) with scavenger” value ([11]; medium containing 10 mM tiron (superoxide scavenger)) turn out when `OO` [hydrogen peroxide] was run?
**A.** The value was “not significantly affected”.

**Q.** What about the “MIC fold change (increase) with scavenger” value ([11]; medium containing 150 mM thiourea (hydroxyl radical scavenger)) of the same molecule?
**A.** Its value is 14 fold.

**Q.** And the “MIC fold change (increase) with scavengers” value ([11]; medium containing both tiron and thiourea)?
**A.** The value was “no additive effect”.
